Measurements as given in patent US8022206B2 (OSI Pharmaceuticals, LLC, priority 2008, dated 2011).

Assays:
RON (human) = RON (human) (Homo sapiens, UniProt Q04912); assay: RON (human) AlphaScreen kinase assay, Km of ATP; assay type: biochemical; details: AlphaScreen, Km of ATP; read-out: RON biochemical IC50
Outline: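 Detection used PT66 AlphaScreen beads added in Tris pH 7.5/NaCl/EDTA/BSA buffer, read after 1 h incubation. Vehicle-only DMSO wells served as controls.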

MET (human) = MET (human) (Homo sapiens, UniProt P08581); assay: MET (human) AlphaScreen kinase assay, Km of ATP; assay type: biochemical; details: AlphaScreen, Km of ATP; read-out: Met biochemical IC50
Outline: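 Human MET at lot-optimised concentration in 50 mM Tris pH 7.4 buffer with 1 mM DTT, compound at 1% DMSO final; enzyme starts the reaction, 60 min at RT.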

MET (human), sequence (P08581 25-1390): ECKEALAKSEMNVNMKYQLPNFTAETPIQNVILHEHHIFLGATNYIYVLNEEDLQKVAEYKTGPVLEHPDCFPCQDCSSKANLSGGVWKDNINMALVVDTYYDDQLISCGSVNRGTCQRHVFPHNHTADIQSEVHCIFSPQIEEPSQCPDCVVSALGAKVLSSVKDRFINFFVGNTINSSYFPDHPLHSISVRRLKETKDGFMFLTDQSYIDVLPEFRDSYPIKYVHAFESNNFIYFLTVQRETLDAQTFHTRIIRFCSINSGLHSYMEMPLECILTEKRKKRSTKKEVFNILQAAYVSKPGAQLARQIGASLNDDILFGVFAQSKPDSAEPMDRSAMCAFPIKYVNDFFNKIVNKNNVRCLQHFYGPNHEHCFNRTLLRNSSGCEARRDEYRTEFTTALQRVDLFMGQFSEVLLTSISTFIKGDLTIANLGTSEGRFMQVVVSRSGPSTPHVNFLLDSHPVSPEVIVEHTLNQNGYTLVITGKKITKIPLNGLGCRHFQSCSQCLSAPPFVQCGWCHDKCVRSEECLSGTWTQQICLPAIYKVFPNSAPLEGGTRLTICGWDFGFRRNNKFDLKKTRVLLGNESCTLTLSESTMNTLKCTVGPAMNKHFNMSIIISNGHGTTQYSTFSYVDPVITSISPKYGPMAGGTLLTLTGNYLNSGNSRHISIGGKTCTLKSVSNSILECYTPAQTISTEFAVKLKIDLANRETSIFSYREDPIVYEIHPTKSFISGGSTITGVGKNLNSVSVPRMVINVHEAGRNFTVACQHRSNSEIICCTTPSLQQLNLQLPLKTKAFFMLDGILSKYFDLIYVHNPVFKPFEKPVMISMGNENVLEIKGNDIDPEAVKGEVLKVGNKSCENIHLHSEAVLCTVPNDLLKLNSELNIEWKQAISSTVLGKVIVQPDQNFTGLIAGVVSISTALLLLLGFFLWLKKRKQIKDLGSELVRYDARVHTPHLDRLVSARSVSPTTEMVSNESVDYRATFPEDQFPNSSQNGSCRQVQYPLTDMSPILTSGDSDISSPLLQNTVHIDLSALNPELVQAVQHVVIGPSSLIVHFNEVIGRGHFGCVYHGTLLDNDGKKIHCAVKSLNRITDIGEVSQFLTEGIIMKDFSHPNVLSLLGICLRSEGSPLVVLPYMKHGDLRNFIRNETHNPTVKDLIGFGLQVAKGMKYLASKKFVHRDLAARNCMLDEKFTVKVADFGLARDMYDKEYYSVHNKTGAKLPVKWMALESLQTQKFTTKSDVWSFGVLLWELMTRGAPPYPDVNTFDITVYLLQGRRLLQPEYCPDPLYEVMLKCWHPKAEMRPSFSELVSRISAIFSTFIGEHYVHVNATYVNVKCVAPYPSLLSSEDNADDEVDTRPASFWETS
RON (human), sequence (Q04912 25-1400): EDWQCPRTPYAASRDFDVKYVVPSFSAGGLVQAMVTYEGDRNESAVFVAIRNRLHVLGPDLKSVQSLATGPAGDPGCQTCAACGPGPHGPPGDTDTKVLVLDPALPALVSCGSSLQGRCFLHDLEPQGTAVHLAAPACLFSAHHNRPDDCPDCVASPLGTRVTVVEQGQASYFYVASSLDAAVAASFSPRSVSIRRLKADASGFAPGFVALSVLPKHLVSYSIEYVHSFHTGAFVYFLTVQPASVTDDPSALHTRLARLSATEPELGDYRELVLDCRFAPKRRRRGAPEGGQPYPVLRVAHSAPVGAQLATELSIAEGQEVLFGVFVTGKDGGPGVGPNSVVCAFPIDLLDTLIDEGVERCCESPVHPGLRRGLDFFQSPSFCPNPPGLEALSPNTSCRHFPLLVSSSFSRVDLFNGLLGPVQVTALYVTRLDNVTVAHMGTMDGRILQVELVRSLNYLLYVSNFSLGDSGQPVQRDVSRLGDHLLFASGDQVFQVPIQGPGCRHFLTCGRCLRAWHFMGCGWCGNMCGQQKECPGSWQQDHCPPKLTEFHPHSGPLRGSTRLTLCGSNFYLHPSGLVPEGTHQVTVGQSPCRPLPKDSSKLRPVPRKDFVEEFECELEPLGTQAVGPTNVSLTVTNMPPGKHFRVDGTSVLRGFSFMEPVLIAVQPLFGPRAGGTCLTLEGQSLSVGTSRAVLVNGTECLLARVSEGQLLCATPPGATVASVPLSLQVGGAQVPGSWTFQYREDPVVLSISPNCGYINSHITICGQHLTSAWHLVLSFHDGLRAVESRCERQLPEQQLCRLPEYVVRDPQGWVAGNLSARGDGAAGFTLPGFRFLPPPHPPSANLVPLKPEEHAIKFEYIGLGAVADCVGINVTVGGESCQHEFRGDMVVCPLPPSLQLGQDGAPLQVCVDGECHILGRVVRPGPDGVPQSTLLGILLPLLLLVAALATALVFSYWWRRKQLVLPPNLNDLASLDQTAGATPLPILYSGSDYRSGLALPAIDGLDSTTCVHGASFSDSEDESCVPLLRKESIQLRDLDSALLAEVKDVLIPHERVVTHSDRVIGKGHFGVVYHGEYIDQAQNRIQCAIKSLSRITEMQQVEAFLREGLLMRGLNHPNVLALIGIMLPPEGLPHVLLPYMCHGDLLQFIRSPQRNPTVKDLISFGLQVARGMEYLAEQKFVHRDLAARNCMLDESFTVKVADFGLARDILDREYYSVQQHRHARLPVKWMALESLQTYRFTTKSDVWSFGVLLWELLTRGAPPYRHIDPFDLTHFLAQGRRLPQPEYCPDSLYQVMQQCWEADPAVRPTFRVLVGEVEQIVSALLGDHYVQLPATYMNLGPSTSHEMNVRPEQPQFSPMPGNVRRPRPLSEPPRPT

IC50 (RON (human)) | IC50 (MET (human)) | SMILES
500 to 5000 nM | 500 to 5000 nM | COC(=O)c1cccc(C(C)Oc2c(N)ncc3c(-c4cnn(C5CCNCC5)c4)coc23)c1 (stereo not shown) [Example 410, 3-{1-[6-Amino-3-(1-piperidin-4-yl-1H-pyrazol-4-yl)furo[3,2-c]pyridin-7-yloxy]ethyl}benzoic acid methyl ester]
5000 to 20000 nM | 500 to 5000 nM | C[C@@H](Oc1c(N)ncc2c(-c3cncc(C(=O)N4CCOCC4)c3)coc12)c1c(Cl)ccc(F)c1Cl [Example 282, (5-{6-Amino-7-[(R)-1-(2,6-dichloro-3-fluorophenyl)ethoxy]furo[3,2-c]pyridin-3-yl}pyridin-3-yl)morpholin-4-ylmethanone]
500 to 5000 nM | 500 to 5000 nM | C[C@@H](Oc1c(N)ncc2c(-c3ccc(C(=O)NCCCO)cc3)coc12)c1c(Cl)ccc(F)c1Cl [Example 288, 4-{6-Amino-7-[(R)-1-(2,6-dichloro-3-fluorophenyl)ethoxy]furo[3,2-c]pyridin-3-yl}-N-(3-hydroxypropyl)benzamide]
500 to 5000 nM | 500 to 5000 nM | C[C@@H](Oc1c(N)ncc2c(-c3ccc(N)cc3)coc12)c1c(Cl)ccc(F)c1Cl [Example 77, 3-(4-Aminophenyl)-7-[(R)-1-(2,6-dichloro-3-fluorophenyl)-ethoxy]furo[3,2-c]pyridin-6-ylamine]
500 to 5000 nM | 500 to 5000 nM | COCCNC(=O)c1ccc(-c2coc3c(O[C@H](C)c4c(Cl)ccc(F)c4Cl)c(N)ncc23)cc1 [Example 285, 4-{6-Amino-7-[(R)-1-(2,6-dichloro-3-fluorophenyl)ethoxy]furo[3,2-c]pyridin-3-yl}-N-(2-methoxyethyl)benzamide]
< 500 nM | < 500 nM | C[C@@H](Oc1c(N)ncc2c(C3=CCN(C(=O)CN(C)C)CC3)coc12)c1c(Cl)ccc(F)c1Cl [Example 9, 1-(4-{6-Amino-7-[(R)-1-(2,6-dichloro-3-fluorophenyl)ethoxy]-furo[3,2-c]pyridin-3-yl}-3,6-dihydro-2H-pyridin-1-yl)-2-dimethylaminoethanone]
5000 to 20000 nM | < 500 nM | C[C@@H](Oc1c(N)ncc2c(-c3cnn(C4CCNCC4)c3)coc12)c1nnc2ccc(-c3cnn(C)c3)nn12 [Example 469, 7-{(1R)-1-[6-(1-methyl-1H-pyrazol-4-yl) [1,2,4]triazolo[4,3-b]pyridazin-3-yl]ethoxy}-3-[1-(piperidin-4-yl)-1H-pyrazol-4-yl]furo[3,2-c]pyridin-6-amine]
500 to 5000 nM | 500 to 5000 nM | C[C@@H](Oc1c(N)ncc2c(-c3ccc4cc[nH]c4c3)coc12)c1c(Cl)ccc(F)c1Cl [Example 129, 7-[(R)-(2,6-Dichloro-3-fluorophenyl)ethoxy]-3-(1H-indol-6-yl)furo[3,2-c]pyridin-6-ylamine]
500 to 5000 nM | 500 to 5000 nM | C[C@@H](Oc1c(N)ncc2c(C3=CCN(C(=O)[C@H](O)C(F)(F)F)CC3)coc12)c1c(Cl)ccc(F)c1Cl [Example 269, (2S)-1-[4-{6-Amino-7-[(1R)-1-(2,6-dichloro-3-fluorophenyl)ethoxy]furo[3,2-c]pyridin-3-yl}-3,6-dihydropyridin-1(2H)-yl]-3,3,3-trifluoro-2-hydroxypropan-1-one]
< 500 nM | < 500 nM | Cc1ccc(-c2coc3c(O[C@H](C)c4c(Cl)ccc(F)c4Cl)c(N)ncc23)s1 [Example 95, 7-[(R)-1-(2,6-Dichloro-3-fluorophenyl)ethoxy]-3-(5-methylthiophen-2-yl)furo[3,2-c]pyridin-6-ylamine]
500 to 5000 nM | 500 to 5000 nM | C[C@@H](Oc1c(N)ncc2c(-c3ccc(N4CCN(C(N)=O)CC4)nc3)coc12)c1c(Cl)ccc(F)c1Cl [Example 319, 4-(5-{6-Amino-7-[(R)-1-(2,6-dichloro-3-fluorophenyl)ethoxy]furo[3,2-c]pyridin-3-yl}pyridin-2-yl)piperazine-1-carboxamide]
< 500 nM | < 500 nM | C[C@@H](Oc1c(N)ncc2c(C3=CCN(C(=O)[C@@H](N)CO)CC3)coc12)c1c(Cl)ccc(F)c1Cl [Example 254, (2S)-2-Amino-1-[4-{6-amino-7-[(1R)-1-(2,6-dichloro-3-fluoro-phenyl)ethoxy]furo[3,2-c]pyridin-3-yl}-3,6-dihydropyridin-1(2H)-yl]-3-hydroxypropan-1-one]
> 20000 nM | 500 to 5000 nM | C[C@H](Oc1c(N)ncc2ccoc12)c1nnc2ccc(-c3cnn(C)c3)nn12 [Example 474, 7-{(1S)-1-[6-(1-methyl-1H-pyrazol-4-yl) [1,2,4]triazolo[4,3-b]pyridazin-3-yl]ethoxy}furo[3,2-c]pyridin-6-amine]
500 to 5000 nM | < 500 nM | C[C@@H](Oc1c(N)ncc2c(-c3ccc(C(=O)N(C)C)cc3)coc12)c1c(Cl)ccc(F)c1Cl [Example 72, 4-{6-Amino-7-[(R)-1-(2,6-dichloro-3-fluorophenyl)ethoxy]-furo[3,2-c]pyridin-3-yl}-N,N-dimethylbenzamide]
500 to 5000 nM | 500 to 5000 nM | CNC(=O)c1cccc(C(C)Oc2c(N)ncc3c(-c4cnn(C5CCNCC5)c4)coc23)c1 (stereo not shown) [Example 412, 3-{1-[6-Amino-3-(1-piperidin-4-yl-1H-pyrazol-4-yl)furo[3,2-c]pyridin-7-yloxy]ethyl}-N-methylbenzamide]
500 to 5000 nM | 500 to 5000 nM | CNS(=O)(=O)c1cccc(-c2coc3c(O[C@H](C)c4c(Cl)ccc(F)c4Cl)c(N)ncc23)c1 [Example 83, 3-{6-Amino-7-[(R)-1-(2,6-dichloro-3-fluorophenyl)ethoxy]-furo[3,2-c]pyridin-3-yl}-N-methylbenzenesulfonamide]
500 to 5000 nM | < 500 nM | CC(Cc1c(Cl)cccc1Br)Oc1c(N)ncc2c(-c3cnn(C4CCNCC4)c3)coc12 (stereo not shown) [Example 371, 7-[2-(2-Bromo-6-chlorophenyl)-1-methylethoxy]-3-(1-piperidin-4-yl-1H-pyrazol-4-yl)furo[3,2-c]pyridin-6-ylamine]
500 to 5000 nM | 500 to 5000 nM | CC(Oc1c(N)ncc2c(-c3cnn(C4CCNCC4)c3)coc12)c1cccc(-c2cn[nH]c2)c1 (stereo not shown) [Example 447]
500 to 5000 nM | 500 to 5000 nM | N#CCc1ccccc1COc1c(N)ncc2c(-c3cnn(C4CCNCC4)c3)coc12 [Example 433, {2-[6-Amino-3-(1-piperidin-4-yl-1H-pyrazol-4-yl)furo[3,2-c]pyridin-7-yloxymethyl]phenyl}acetonitrile]
500 to 5000 nM | < 500 nM | CC(Oc1c(N)ncc2c(-c3cnn(C4CCNCC4)c3)coc12)c1cccc(C(F)(F)F)c1 (stereo not shown) [Example 347, 3-(1-Piperidin-4-yl-1H-pyrazol-4-yl)-7-[1-(3-trifluoromethyl-phenyl)ethoxy]furo[3,2-c]pyridin-6-ylamine]
500 to 5000 nM | 500 to 5000 nM | C[C@@H](Oc1c(N)ncc2c(-c3cccc(NS(=O)(=O)CCN(C)C)c3)coc12)c1c(Cl)ccc(F)c1Cl [Example 249, 2-Dimethylaminoethanesulfonic Acid (3-{6-amino-7-[(R)-1-(2,6-dichloro-3-fluorophenyl)ethoxy]furo[3,2-c]pyridin-3-yl}phenyl)amide]
< 500 nM | 500 to 5000 nM | C[C@@H](Oc1c(N)ncc2c(C3=CCCC(N)C3)coc12)c1c(Cl)ccc(F)c1Cl (stereo partly drawn) [Example 145, 3-(5-Aminocyclohex-1-enyl)-7-[(R)-1-(2,6-dichloro-3-fluoro-phenyl)ethoxy]furo[3,2-c]pyridin-6-ylamine]
500 to 5000 nM | 500 to 5000 nM | C[C@@H](Oc1c(N)ncc2c(-c3cccc(O)c3)coc12)c1c(Cl)ccc(F)c1Cl [Example 128, 3-{6-Amino-7-[(R)-(2,6-dichloro-3-fluorophenyl)ethoxy]-furo[3,2-c]pyridin-3-yl}phenol]
5000 to 20000 nM | 500 to 5000 nM | COc1cccc(-c2coc3c(O[C@H](C)c4c(Cl)ccc(F)c4Cl)c(N)ncc23)c1 [Example 60, 7-[(R)-1-(2,6-Dichloro-3-fluorophenyl)ethoxy]-3-(3-methoxy-phenyl)furo[3,2-c]pyridin-6-ylamine]

SMILES | IC50 (RON (human)) | IC50 (MET (human))
CNc1ncc2c(C3=CCN(C)CC3)coc2c1O[C@H](C)c1c(Cl)ccc(F)c1Cl [Example 36, [7-[(R)-1-(2,6-Dichloro-3-fluorophenyl)-ethoxy]-3-(1-methyl-1,2,3,6-tetrahydropyridin-4-yl)-furo[3,2-c]pyridin-6-yl]-methylamine] | < 500 nM | < 500 nM
C[C@@H](Oc1c(N)ncc2c(C3=CCN(CCN)CC3)coc12)c1c(Cl)ccc(F)c1Cl [Example 43, 3-[1-(2-Aminoethyl)-1,2,3,6-tetrahydropyridin-4-yl]-7-[(R)-1-(2,6-dichloro-3-fluorophenyl)ethoxy]-furo[3,2-c]pyridin-6-ylamine] | < 500 nM | < 500 nM
CC(C)N1CC=C(c2coc3c(O[C@H](C)c4c(Cl)ccc(F)c4Cl)c(N)ncc23)CC1 [Example 45, 7-[(R)-1-(2,6-Dichloro-3-fluorophenyl)-ethoxy]-3-(1-isopropyl-1,2,3,6-tetrahydropyridin-4-yl)-furo[3,2-c]pyridin-6-ylamine] | < 500 nM | < 500 nM
C[C@@H](Oc1c(N)ncc2c(C3=CC(N)CCC3)coc12)c1c(Cl)ccc(F)c1Cl (stereo partly drawn) [Example 146, 3-(3-Aminocyclohex-1-enyl)-7-[(R)-1-(2,6-dichloro-3-fluoro-phenyl)ethoxy]furo[3,2-c]pyridin-6-ylamine] | 500 to 5000 nM | < 500 nM
C[C@@H](Oc1c(N)ncc2c(C3=CCN(CC(N)=O)CC3)coc12)c1c(Cl)ccc(F)c1Cl [Example 202, 2-(4-{6-Amino-7-[(R)-1-(2,6-dichloro-3-fluorophenyl)ethoxy]-furo[3,2-c]pyridin-3-yl}-3,6-dihydro-2H-pyridin-1-yl)-acetamide] | 500 to 5000 nM | < 500 nM
